pIC50: −log10 of the molar value. Values belong to the compound of their own block, whether it stands above or below them.
Experiments:
Assay type in all cases: cell-based
CLR/RAMP2 = CLR/RAMP2 (Homo sapiens, UniProt O60895+Q16602); experiment: CLR/RAMP2 PathHunter β-arrestin assay, antagonist mode (ADM challenge at EC80); details: for pIC50: inhibition of ADM-mediated signaling, CHO-K1 cells, pre-incubation with antagonist, then agonist at EC80, β-arrestin read-out; for Emax: maximum inhibition of ADM-mediated signaling, in % of a positive control, read-out: CLR/RAMP2 Max Activity % of control (antagonistic)
Protocol: (§1) The bioactivity of synthetic analogs was studied using cells that stably express CLR/RAMP1 (1321N1 cells) or CLR/RAMP2 (CHO-K1 cells) receptors using CLR/RAMP1 cAMP and CLR/RAMP2 arrestin assays from DiscoveRx (Fremont, Ca). In receptor-activation assays, the dose-dependent stimulatory response was studied in duplicate, at 10 different concentrations.
The CLR/RAMP2 signaling was assayed using the CLR/RAMP2 PathHunter β-Arrestin assay. In this assay, the GPCR was fused in frame with a small enzyme donor fragment ProLink (PK) and co-expressed in cells stably expressing a fusion protein of β-arrestin and an N-terminal deletion mutant of β-galactosidase (i.e., enzyme acceptor or EA). Activation of the CLR/RAMP2 stimulates binding of β-arrestin to the PK-tagged receptor and leads to an increase in enzyme activity that can be measured using chemiluminescent PathHunter Detection Reagents. PathHunter cell lines were seeded in white walled, 384-well microplates and incubated at 37C prior to testing. For agonist determination, intermediate dilution of sample stocks was performed to generate 5X sample in assay buffer, and 5 μl of 5X sample was added to cells and incubated at 37C for 90 minutes. Vehicle concentration was 1%. For antagonistic activity determination, cells were pre-incubated with antagonist followed by agonist challenge at the EC80 concentration.

CLR/RAMP1 [1] = molecular target: T1, CLR/RAMP1 (Homo sapiens, UniProt O60894+Q16602); experiment: CLR/RAMP1 cAMP assay, antagonist mode (CGRP challenge at EC80); details: for Emax: maximum inhibition of CGRP-mediated signaling, in % of a positive control, read-out: CLR/RAMP1 Max Activity % of control (antagonistic)
CLR/RAMP1 [2] = molecular target: T1, CLR/RAMP1; experiment: CLR/RAMP1 cAMP assay, agonist mode (DiscoveRx HitHunter cAMP XS+); details: agonist mode; positive control CGRP; 1321N1 cells
Protocol: as §1
For the analysis of signaling in CLR/RAMP1-expressing cells, cAMP Hunter cell lines were expanded from freezer stocks, and cells were seeded in white walled, 384-well microplates and incubated at 37C for the appropriate time. The activity was determined using the DiscoveRx HitHunter cAMP XS+ assay. Media was aspirated from cells and replaced with 15 μl 2:1 HBSS/10mM Hepes:cAMP XS+ Ab reagent. Intermediate dilution of sample stocks was performed to generate 4X sample in assay buffer, and 5 μl of 4X sample was added to cells and incubated at 37C or room temperature for the appropriate time. Vehicle concentration was 1%.
Microplates were read with a PerkinElmer instrument for chemiluminescent signal detection.

T1 sequence (Q16602 23-461): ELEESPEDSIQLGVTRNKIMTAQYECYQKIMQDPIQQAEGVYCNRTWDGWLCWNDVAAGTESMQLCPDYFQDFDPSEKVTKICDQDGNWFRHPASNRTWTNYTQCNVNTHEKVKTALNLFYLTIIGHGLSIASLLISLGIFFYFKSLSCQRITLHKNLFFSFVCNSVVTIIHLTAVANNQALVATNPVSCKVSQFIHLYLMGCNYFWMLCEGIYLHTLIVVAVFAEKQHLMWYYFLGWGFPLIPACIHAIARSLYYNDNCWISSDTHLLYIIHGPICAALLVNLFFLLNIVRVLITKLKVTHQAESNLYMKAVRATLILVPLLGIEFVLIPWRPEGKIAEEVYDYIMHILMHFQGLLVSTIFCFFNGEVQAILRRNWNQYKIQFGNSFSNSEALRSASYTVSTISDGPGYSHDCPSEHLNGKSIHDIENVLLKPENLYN
T1 sequence (O60894 27-148): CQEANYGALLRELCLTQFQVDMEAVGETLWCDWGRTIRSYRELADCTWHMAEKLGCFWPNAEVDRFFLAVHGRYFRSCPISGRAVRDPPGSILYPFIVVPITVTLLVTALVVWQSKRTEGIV
CLR/RAMP2, sequence (Q16602 23-461): as the sequence (Q16602 23-461) above
CLR/RAMP2, sequence (O60895 43-175): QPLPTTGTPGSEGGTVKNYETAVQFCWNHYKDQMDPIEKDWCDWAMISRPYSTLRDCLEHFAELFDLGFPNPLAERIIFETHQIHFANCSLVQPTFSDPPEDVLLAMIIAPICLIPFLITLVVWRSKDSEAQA

Structure (SMILES): CC[C@H](C)[C@H](NC(=O)[C@H](CCC(N)=O)NC(=O)[C@H](Cc1c[nH]cn1)NC(=O)[C@H](C)NC(=O)[C@H](CC(C)C)NC(=O)[C@H](CCCCN)NC(=O)[C@H](CCC(N)=O)NC(=O)[C@@H](NC(=O)[C@@H](N)[C@@H](C)O)C(C)C)C(=O)N[C@@H](Cc1ccc(O)cc1)C(=O)N[C@@H](CCC(N)=O)C(=O)N[C@@H](Cc1ccccc1)C(=O)N[C@H](C(=O)N[C@@H](CC(=O)O)C(=O)N[C@@H](CCCCN)C(=O)N[C@@H](CC(=O)O)C(=O)N[C@@H](CCCCN)C(=O)N[C@@H](CC(=O)O)C(=O)N[C@@H](CC(N)=O)C(=O)N[C@H](C(=O)N[C@@H](C)C(=O)N1CCC[C@H]1C(=O)N[C@@H](CCCNC(=N)N)C(=O)N[C@@H](CO)C(=O)N[C@@H](CCCCN)C(=O)N[C@H](C(=O)N[C@@H](CO)C(=O)N1CCC[C@H]1C(=O)N[C@@H](CCC(N)=O)C(=O)NCC(=O)N[C@@H](Cc1ccc(O)cc1)C(N)=O)[C@@H](C)CC)C(C)C)[C@@H](C)O [ADM22-52, reference compound]
pIC50 (CLR/RAMP2): 6.59
Emax (CLR/RAMP2): 105%
pIC50 (CLR/RAMP1 [1]): 5.18
Emax (CLR/RAMP1 [1]): 57%

Structure (SMILES): CCCCCCCCCCCCCCCC(=O)N[C@H](C(=O)N[C@H](C(=O)N[C@@H](CCC(N)=O)C(=O)N[C@@H](CCCCN)C(=O)N[C@@H](CC(C)C)C(=O)N[C@@H](C)C(=O)N[C@@H](Cc1c[nH]cn1)C(=O)N[C@@H](CCC(N)=O)C(=O)N[C@H](C(=O)N[C@@H](Cc1ccc(O)cc1)C(=O)N[C@@H](CCC(N)=O)C(=O)N[C@@H](Cc1ccccc1)C(=O)N[C@H](C(=O)N[C@@H](CC(=O)O)C(=O)N[C@@H](CCCCN)C(=O)N[C@@H](CC(=O)O)C(=O)N[C@@H](CCCCN)C(=O)N[C@@H](CC(=O)O)C(=O)N[C@@H](CC(N)=O)C(=O)N[C@@H](CO)C(=O)N[C@@H](C)C(=O)N1CCC[C@H]1C(=O)N[C@H](C(=O)N[C@@H](CC(=O)O)C(=O)N1CCC[C@H]1C(=O)N[C@@H](CO)C(=O)N[C@@H](CO)C(=O)N1CCC[C@H]1C(=O)N[C@@H](Cc1c[nH]cn1)C(=O)N[C@@H](CO)C(=O)N[C@@H](Cc1ccc(O)cc1)C(N)=O)C(C)C)[C@@H](C)O)[C@@H](C)CC)C(C)C)[C@@H](C)O [Antagonist 1–1]
Emax (CLR/RAMP2): 100%

Structure (SMILES): CC[C@H](C)[C@H](NC(=O)[C@H](CCC(N)=O)NC(=O)[C@H](Cc1c[nH]cn1)NC(=O)[C@H](C)NC(=O)[C@H](CC(C)C)NC(=O)[C@H](CCCCN)NC(=O)[C@H](CCC(N)=O)NC(=O)[C@@H](NC(=O)[C@@H](N)[C@@H](C)O)C(C)C)C(=O)N[C@@H](Cc1ccc(O)cc1)C(=O)N[C@@H](CCC(N)=O)C(=O)N[C@@H](Cc1ccccc1)C(=O)N[C@H](C(=O)N[C@@H](CC(=O)O)C(=O)N[C@@H](CCCCN)C(=O)N[C@@H](CC(=O)O)C(=O)N[C@@H](CCCCN)C(=O)N[C@@H](CC(=O)O)C(=O)N[C@@H](CC(N)=O)C(=O)N[C@@H](CO)C(=O)N[C@@H](C)C(=O)N1CCC[C@H]1C(=O)N[C@H](C(=O)N[C@@H](CC(=O)O)C(=O)N1CCC[C@H]1C(=O)N[C@@H](CO)C(=O)N[C@@H](CO)C(=O)N1CCC[C@H]1C(=O)N[C@@H](Cc1c[nH]cn1)C(=O)N[C@@H](CO)C(=O)N[C@@H](Cc1ccc(O)cc1)C(N)=O)C(C)C)[C@@H](C)O [Antagonist 1–4]
pIC50 (CLR/RAMP2): 6.54
Emax (CLR/RAMP2): 101%
pIC50 (CLR/RAMP1 [1]): 5.95
Emax (CLR/RAMP1 [1]): 106%

Structure (SMILES): CC[C@H](C)[C@H](NC(=O)[C@H](CCCCN)NC(=O)[C@H](CO)NC(=O)[C@H](CCCNC(=N)N)NC(=O)[C@@H]1CCCN1C(=O)[C@H](C)NC(=O)[C@@H](NC(=O)[C@H](CC(N)=O)NC(=O)[C@H](CC(=O)O)NC(=O)[C@H](CCCCN)NC(=O)[C@H](CC(=O)O)NC(=O)[C@H](CCCCN)NC(=O)[C@H](CC(=O)O)NC(=O)[C@@H](NC(=O)[C@H](Cc1ccccc1)NC(=O)[C@H](CCCNC(=N)N)NC(=O)[C@H](CO)NC(=O)[C@H](CC(C)C)NC(=O)[C@H](CC(C)C)NC(=O)CNC(=O)[C@H](C)NC(=O)[C@H](CC(C)C)NC(=O)[C@H](CCCNC(=N)N)NC(=O)[C@H](Cc1c[nH]cn1)NC(=O)[C@@H](NC(=O)[C@@H](N)C(C)C)[C@@H](C)O)[C@@H](C)O)C(C)C)C(=O)N[C@@H](CO)C(=O)N1CCC[C@H]1C(=O)N[C@@H](CCC(N)=O)C(=O)NCC(=O)N[C@@H](Cc1ccc(O)cc1)C(N)=O [Antagonist 1–5]
pIC50 (CLR/RAMP2): 6.93
Emax (CLR/RAMP2): 100%
pIC50 (CLR/RAMP1 [1]): 5.73
Emax (CLR/RAMP1 [1]): 99%

Structure (SMILES): NCCCC[C@H](NC(=O)[C@@H](Cc1cc(Br)c(O)c(Br)c1)NC(=O)N1CCC(N2Cc3ccccc3NC2=O)CC1)C(=O)N1CCN(c2ccncc2)CC1 [BIBN4096, reference compound]
Emax (CLR/RAMP2): 0%

Results, then the compound that gave them:

pIC50 (CLR/RAMP2): 8.14
Emax (CLR/RAMP2): 101%
pIC50 (CLR/RAMP1 [1]): 6.82
Emax (CLR/RAMP1 [1]): 101%
Structure (SMILES): CC[C@H](C)[C@H](NC(=O)[C@H](CCCCN)NC(=O)[C@H](CO)NC(=O)[C@H](CCCNC(=N)N)NC(=O)[C@@H]1CCCN1C(=O)[C@H](C)NC(=O)[C@@H](NC(=O)[C@H](CC(N)=O)NC(=O)[C@H](CC(=O)O)NC(=O)[C@H](CCCCN)NC(=O)[C@H](CC(=O)O)NC(=O)[C@@H]1CCCN1C(=O)CNC(=O)[C@H](CCSC)NC(=O)[C@H](CC(C)C)NC(=O)[C@H](CCC(N)=O)NC(=O)[C@H](Cc1c[nH]c2ccccc12)NC(=O)[C@H](CC(C)C)NC(=O)[C@H](CCCNC(=N)N)NC(=O)[C@H](Cc1c[nH]cn1)NC(=O)[C@H](C)NC(=O)[C@H](CC(C)C)NC(=O)[C@H](CCCCN)NC(=O)[C@H](CCC(N)=O)NC(=O)[C@@H](NC(=O)[C@@H](N)[C@@H](C)O)C(C)C)C(C)C)C(=O)N[C@@H](CO)C(=O)N1CCC[C@H]1C(=O)N[C@@H](CCC(N)=O)C(=O)NCC(=O)N[C@@H](Cc1ccc(O)cc1)C(N)=O [Antagonist 1–6]

CLR/RAMP1 Max Activity % of control (CLR/RAMP1 [2]): 103 % of control
Structure (SMILES): CSCC[C@H](NC(=O)CNC(=O)CNC(=O)[C@H](CO)NC(=O)[C@H](CCCNC(=N)N)NC(=O)[C@H](CO)NC(=O)[C@H](CC(C)C)NC(=O)[C@H](CC(C)C)NC(=O)CNC(=O)[C@H](C)NC(=O)[C@H](CC(C)C)NC(=O)[C@H](CCCNC(=N)N)NC(=O)[C@H](Cc1c[nH]cn1)NC(=O)[C@@H](NC(=O)[C@@H](NC(=O)[C@@H]1CSSC[C@H](NC(=O)[C@H](C)N)C(=O)N[C@@H](CC(N)=O)C(=O)N[C@@H]([C@@H](C)O)C(=O)N[C@@H](C)C(=O)N[C@@H]([C@@H](C)O)C(=O)N1)C(C)C)[C@@H](C)O)C(=O)N[C@H](C(=O)N[C@@H](CCCCN)C(=O)N[C@@H](CO)C(=O)N[C@@H](CC(N)=O)C(=O)N[C@@H](Cc1ccccc1)C(=O)N[C@H](C(=O)N1CCC[C@H]1C(=O)N[C@H](C(=O)N[C@@H](CC(N)=O)C(=O)N[C@H](C(=O)NCC(=O)N[C@@H](CO)C(=O)N[C@@H](CCCCN)C(=O)N[C@@H](C)C(=O)N[C@@H](Cc1ccccc1)C(N)=O)C(C)C)[C@@H](C)O)C(C)C)C(C)C [CGRP, calcitonin gene-related peptide]

— article PMC6544337, “Development of chimeric and bifunctional antagonists for CLR/RAMP receptors” (PLoS ONE, 2019)
